# How the values were obtained:
# HiBit-BRM fusion protein = target: T1, HiBit-BRM fusion protein (Homo sapiens, UniProt P51531); test: HiBiT-BRM cell-based degradation assay (Nano-Glo HiBiT Lytic Detection); conditions: stable HeLa cell line expressing HiBiT-BRM, 24 h incubation; for BRM HiBit Degradation Maximum (%): top dose 30 μM; for DC50: read-out: BRM HiBit Degradation IC50
# T1 construct: expressed in transfected cells
# Method: (§1) Procedure: A stable HeLa cell line expressing HiBiT-BRM was generated. On day 0, 5000 cells were seeded in 40 μL of media into each well of 384-well cell culture plates. On day 1, cells were treated with 120 nL DMSO or 120 nL of 3-fold serially DMSO-diluted compounds (10 points in duplicate with 30 μM as final top dose). Subsequently plates were incubated for 24 h in a standard tissue culture incubator and equilibrated at room temperature for 15 minutes. Nano-Glo HiBiT Lytic Detection System (Promega N3050) reagent was freshly prepared and 20 ul was added to each well. Upon addition of this LgBit-containing reagent, the HiBiT and LgBiT proteins associate to form the luminescent NanoBiT luciferase. The plates were shaken for 10 minutes at room temperature and the bioluminescence read using an EnVision plate reader (PerkinElmer).
# (§2) The degradation % was calculated using the following formula: % degradation=100%−100%×(LumSample−LumLC)/(LumHC−LumLC). DMSO treated cells are employed as High Control (HC) and 2 μM of a known BRM/BRG1 degrader standard treated cells are employed as Low Control (LC).
# [1] = target: T2, HiBit-BRG1 fusion protein (Homo sapiens, UniProt P51532); test: HiBiT-BRG1 cell-based degradation assay (Nano-Glo HiBiT Lytic Detection); conditions: stable HeLa cell line expressing HiBit-BRG1 and LgBit, 24 h incubation; for Dmax: top dose 30 μM, read-out: BRG1 HiBit Degradation Maximum (%); for DC50: read-out: BRMG1 HiBit Degradation IC50
# T2 construct: expressed in transfected cells
# T2 sequence (P51532 whole entry, the tested form may be a part): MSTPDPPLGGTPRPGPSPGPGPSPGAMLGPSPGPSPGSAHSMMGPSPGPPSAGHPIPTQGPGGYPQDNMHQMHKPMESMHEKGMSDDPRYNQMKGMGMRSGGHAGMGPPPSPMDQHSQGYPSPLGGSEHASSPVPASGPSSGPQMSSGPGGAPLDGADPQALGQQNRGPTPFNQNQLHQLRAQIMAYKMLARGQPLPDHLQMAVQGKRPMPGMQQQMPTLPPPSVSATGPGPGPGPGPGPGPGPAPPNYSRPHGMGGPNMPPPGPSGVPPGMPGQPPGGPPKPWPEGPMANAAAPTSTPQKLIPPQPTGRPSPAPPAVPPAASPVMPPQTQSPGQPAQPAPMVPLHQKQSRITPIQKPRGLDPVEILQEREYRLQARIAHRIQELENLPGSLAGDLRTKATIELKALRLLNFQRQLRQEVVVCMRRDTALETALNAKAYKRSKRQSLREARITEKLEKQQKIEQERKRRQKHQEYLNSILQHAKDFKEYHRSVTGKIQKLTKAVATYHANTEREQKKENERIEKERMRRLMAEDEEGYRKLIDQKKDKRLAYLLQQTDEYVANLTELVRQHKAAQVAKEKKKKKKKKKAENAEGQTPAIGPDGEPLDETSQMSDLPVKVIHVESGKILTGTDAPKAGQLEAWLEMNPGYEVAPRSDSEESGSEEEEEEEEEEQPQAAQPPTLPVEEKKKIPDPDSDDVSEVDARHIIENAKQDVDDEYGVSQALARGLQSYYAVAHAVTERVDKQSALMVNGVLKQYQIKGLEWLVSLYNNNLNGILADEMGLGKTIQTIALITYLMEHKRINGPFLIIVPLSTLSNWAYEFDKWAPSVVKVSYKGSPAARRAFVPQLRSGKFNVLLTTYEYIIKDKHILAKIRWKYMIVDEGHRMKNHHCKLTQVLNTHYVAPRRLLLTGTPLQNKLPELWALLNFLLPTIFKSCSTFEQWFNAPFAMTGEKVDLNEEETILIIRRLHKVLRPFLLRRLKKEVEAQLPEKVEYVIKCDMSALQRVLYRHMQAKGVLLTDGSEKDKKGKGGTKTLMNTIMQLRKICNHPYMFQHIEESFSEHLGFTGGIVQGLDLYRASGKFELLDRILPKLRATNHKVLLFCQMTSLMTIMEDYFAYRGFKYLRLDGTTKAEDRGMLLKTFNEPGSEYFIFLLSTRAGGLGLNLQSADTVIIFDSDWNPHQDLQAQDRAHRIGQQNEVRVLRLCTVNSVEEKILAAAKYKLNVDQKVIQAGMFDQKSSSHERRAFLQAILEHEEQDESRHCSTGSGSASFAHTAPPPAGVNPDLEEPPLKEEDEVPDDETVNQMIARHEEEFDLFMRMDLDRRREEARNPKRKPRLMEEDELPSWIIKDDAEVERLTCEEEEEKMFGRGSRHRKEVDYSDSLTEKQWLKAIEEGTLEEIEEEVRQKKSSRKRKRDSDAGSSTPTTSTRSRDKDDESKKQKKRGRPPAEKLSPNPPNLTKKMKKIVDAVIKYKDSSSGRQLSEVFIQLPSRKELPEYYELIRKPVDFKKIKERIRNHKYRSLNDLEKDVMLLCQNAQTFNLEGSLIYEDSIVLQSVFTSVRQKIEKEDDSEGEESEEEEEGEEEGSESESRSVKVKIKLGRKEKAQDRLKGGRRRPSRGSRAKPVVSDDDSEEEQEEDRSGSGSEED
# Method: as §1
# For measurement of BRG1 degradation, a stable HeLa cell line expressing HiBit-BRG1 and LgBit was generated. The same protocol as above was then followed.
# as §2
# T1 sequence (P51531 whole entry, the tested form may be a part): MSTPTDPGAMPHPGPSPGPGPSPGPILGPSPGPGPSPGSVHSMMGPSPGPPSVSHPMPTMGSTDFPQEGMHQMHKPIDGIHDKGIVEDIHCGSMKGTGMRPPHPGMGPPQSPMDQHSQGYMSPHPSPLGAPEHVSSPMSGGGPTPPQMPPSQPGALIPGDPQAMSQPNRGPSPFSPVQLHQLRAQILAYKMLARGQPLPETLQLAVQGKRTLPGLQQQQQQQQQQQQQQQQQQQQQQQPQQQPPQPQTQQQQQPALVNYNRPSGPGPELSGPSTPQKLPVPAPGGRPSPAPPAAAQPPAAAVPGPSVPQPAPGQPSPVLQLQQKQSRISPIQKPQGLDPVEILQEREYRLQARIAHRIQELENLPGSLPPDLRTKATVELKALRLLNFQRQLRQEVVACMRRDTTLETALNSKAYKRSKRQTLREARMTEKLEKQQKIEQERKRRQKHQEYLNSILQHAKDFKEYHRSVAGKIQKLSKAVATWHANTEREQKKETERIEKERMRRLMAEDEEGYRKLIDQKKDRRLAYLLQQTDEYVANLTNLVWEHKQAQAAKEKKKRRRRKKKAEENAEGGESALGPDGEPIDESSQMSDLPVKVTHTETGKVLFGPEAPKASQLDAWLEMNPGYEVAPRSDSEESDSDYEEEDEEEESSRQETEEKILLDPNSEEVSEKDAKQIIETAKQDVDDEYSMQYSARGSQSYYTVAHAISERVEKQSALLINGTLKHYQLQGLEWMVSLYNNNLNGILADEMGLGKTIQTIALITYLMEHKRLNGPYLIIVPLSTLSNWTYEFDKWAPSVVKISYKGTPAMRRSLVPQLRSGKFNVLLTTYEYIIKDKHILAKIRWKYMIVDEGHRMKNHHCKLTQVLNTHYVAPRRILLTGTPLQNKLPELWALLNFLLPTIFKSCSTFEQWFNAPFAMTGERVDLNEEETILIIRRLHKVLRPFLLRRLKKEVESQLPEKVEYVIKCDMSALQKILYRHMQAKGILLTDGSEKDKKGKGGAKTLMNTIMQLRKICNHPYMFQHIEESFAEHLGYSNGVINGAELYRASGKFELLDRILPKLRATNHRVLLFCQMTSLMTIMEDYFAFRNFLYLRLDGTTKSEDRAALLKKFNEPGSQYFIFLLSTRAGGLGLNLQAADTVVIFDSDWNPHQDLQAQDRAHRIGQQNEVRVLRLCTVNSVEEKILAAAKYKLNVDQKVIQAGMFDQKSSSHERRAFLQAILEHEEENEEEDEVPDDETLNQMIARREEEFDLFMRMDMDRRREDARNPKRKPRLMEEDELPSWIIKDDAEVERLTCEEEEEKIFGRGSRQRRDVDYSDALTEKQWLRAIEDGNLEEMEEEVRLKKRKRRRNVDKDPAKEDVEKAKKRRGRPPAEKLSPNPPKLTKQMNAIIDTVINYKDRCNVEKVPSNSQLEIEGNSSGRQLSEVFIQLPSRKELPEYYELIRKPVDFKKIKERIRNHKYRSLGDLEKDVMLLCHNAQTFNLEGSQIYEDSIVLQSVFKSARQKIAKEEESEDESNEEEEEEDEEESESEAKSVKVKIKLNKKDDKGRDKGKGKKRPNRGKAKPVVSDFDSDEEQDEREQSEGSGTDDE
Structure (SMILES),DC50 (HiBit-BRM fusion protein) [nM],Dmax [1] [%],DC50 [1] [nM],BRM HiBit Degradation Maximum (%) (HiBit-BRM fusion protein)
Cc1ncsc1-c1ccc([C@H](C)NC(=O)[C@@H]2C[C@@H](O)CN2C(=O)[C@@H](c2cc(OCCN3CC(c4c(C)sc5nnc(-c6ccccc6O)cc45)C3)no2)C(C)C)cc1 [Compound 14],≥ 1000,< 50,≥ 1000,C (“C” indicates maximum degradation < 50%)
Cc1ncsc1-c1ccc(CNC(=O)[C@H]2C[C@H](O)CN2C(=O)[C@H](NC(=O)CCN2CC(c3sc4nnc(-c5ccccc5O)cc4c3C)C2)C(C)(C)C)cc1 [Compound 17],≥ 1000,< 50,≥ 1000,C (“C” indicates maximum degradation < 50%)
Cc1ncsc1-c1ccc(CNC(=O)[C@@H]2C[C@@H](O)CN2C(=O)[C@@H](NC(=O)CCCCC(=O)N2CC(c3sc4nnc(-c5ccccc5O)cc4c3C)C2)C(C)(C)C)cc1 [Compound 18],≥ 1000,< 50,≥ 1000,C (“C” indicates maximum degradation < 50%)
Cc1ncsc1-c1ccc(CNC(=O)[C@@H]2C[C@@H](O)CN2C(=O)[C@@H](NC(=O)CCCC(=O)N2CC(c3sc4nnc(-c5ccccc5O)cc4c3C)C2)C(C)(C)C)cc1 [Compound 19],≥ 1000,≥ 75,≥ 1000,A (“A” indicates maximum degradation ≥ 75%)
Cc1ncsc1-c1ccc(CNC(=O)[C@H]2C[C@H](O)CN2C(=O)[C@H](NC(=O)CCC(=O)N2CC(c3sc4nnc(-c5ccccc5O)cc4c3C)C2)C(C)(C)C)cc1 [Compound 20],≥ 1000,< 50,≥ 1000,C (“C” indicates maximum degradation < 50%)
Cc1ncsc1-c1ccc([C@H](C)NC(=O)[C@@H]2C[C@@H](O)CN2C(=O)[C@@H](c2cc(OCCN3C[C@@H]4[C@H](C3)[C@H]4c3c(C)sc4nnc(-c5ccccc5O)cc34)no2)C(C)C)cc1 [Compound 21],≥ 1000,< 50,≥ 1000,C (“C” indicates maximum degradation < 50%)
Cc1ncsc1-c1ccc(CNC(=O)[C@@H]2C[C@@H](O)CN2C(=O)[C@@H](NC(=O)CCN2CCC(c3cc4cc(-c5ccccc5O)nnc4s3)CC2)C(C)(C)C)cc1 [Compound 24],≥ 1000,< 50,≥ 1000,C (“C” indicates maximum degradation < 50%)
Cc1ncsc1-c1ccc(CNC(=O)[C@@H]2C[C@@H](O)CN2C(=O)[C@@H](NC(=O)CCC(=O)N2CC(c3cc4cc(-c5ccccc5O)nnc4s3)C2)C(C)(C)C)cc1 [Compound 25],≥ 1000,< 50,≥ 1000,C (“C” indicates maximum degradation < 50%)
Cc1ncsc1-c1ccc(CNC(=O)[C@@H]2C[C@@H](O)CN2C(=O)[C@@H](NC(=O)CCN2CC(c3cc4cc(-c5ccccc5O)nnc4s3)C2)C(C)(C)C)cc1 [Compound 26],≥ 1000,< 50,≥ 1000,C (“C” indicates maximum degradation < 50%)
Cc1ncsc1-c1ccc(CNC(=O)[C@@H]2C[C@@H](O)CN2C(=O)[C@@H](NC(=O)CCC(=O)N2CCC(c3cc4cc(-c5ccccc5O)nnc4s3)CC2)C(C)(C)C)cc1 [Compound 27],≥ 1000,< 50,≥ 1000,B (“B” indicates maximum degradation ≥ 50%)
Cc1ncsc1-c1ccc(CNC(=O)[C@@H]2C[C@@H](O)CN2C(=O)[C@@H](NC(=O)CCCC(=O)N2CCC(c3cc4cc(-c5ccccc5O)nnc4s3)CC2)C(C)(C)C)cc1 [Compound 28],≥ 1000,< 50,≥ 1000,B (“B” indicates maximum degradation ≥ 50%)
Cc1ncsc1-c1ccc(CNC(=O)[C@@H]2C[C@@H](O)CN2C(=O)[C@@H](NC(=O)CCCCC(=O)N2CCC(c3cc4cc(-c5ccccc5O)nnc4s3)CC2)C(C)(C)C)cc1 [Compound 29],≥ 1000,< 50,≥ 1000,C (“C” indicates maximum degradation < 50%)
Cc1ncsc1-c1ccc(CNC(=O)[C@@H]2C[C@@H](O)CN2C(=O)[C@@H](NC(=O)CCCCC(=O)N2CC(c3cc4cc(-c5ccccc5O)nnc4s3)C2)C(C)(C)C)cc1 [Compound 30],≥ 1000,< 50,≥ 1000,C (“C” indicates maximum degradation < 50%)
Cc1ncsc1-c1ccc([C@H](C)NC(=O)[C@@H]2C[C@@H](O)CN2C(=O)[C@H](c2cc(N3CCC(CN4CC(c5cc6cc(-c7ccccc7O)nnc6s5)C4)CC3)no2)C(C)C)cc1 [Compound 33],≥ 1000,< 50,≥ 1000,C (“C” indicates maximum degradation < 50%)

# Second part, led by results:
DC50 (HiBit-BRM fusion protein) [nM],Dmax [1] [%],DC50 [1] [nM],Structure (SMILES),BRM HiBit Degradation Maximum (%) (HiBit-BRM fusion protein)
≥ 100,< 50,≥ 1000,Cc1ncsc1-c1ccc([C@H](C)NC(=O)[C@@H]2C[C@@H](O)CN2C(=O)[C@@H](c2cc(C3CCN(C(=O)CN4CC(c5cc6cc(-c7ccccc7O)nnc6s5)C4)CC3)no2)C(C)C)cc1 [Compound 13],B (“B” indicates maximum degradation ≥ 50%)
≥ 10,< 50,≥ 1000,Cc1ncsc1-c1ccc([C@@H](C)NC(=O)[C@H]2C[C@H](O)CN2C(=O)[C@H](c2cc(OCCN3C[C@@H]4[C@H](C3)[C@H]4c3sc4nnc(-c5ccccc5O)cc4c3C)no2)C(C)C)cc1 [Compound 15],A (“A” indicates maximum degradation ≥ 75%)
≥ 10,< 50,≥ 1000,Cc1ncsc1-c1ccc([C@H](C)NC(=O)[C@@H]2C[C@@H](O)CN2C(=O)[C@@H](c2cc(OCCN3CC(Cc4sc5nnc(-c6ccccc6O)cc5c4C)C3)no2)C(C)C)cc1 [Compound 16],A (“A” indicates maximum degradation ≥ 75%)
≥ 10,≥ 50,≥ 10,Cc1ncsc1-c1ccc([C@H](C)NC(=O)[C@@H]2C[C@@H](O)CN2C(=O)[C@@H](c2cc(OCCN3CC(c4sc5nnc(-c6ccccc6O)cc5c4C)C3)no2)C(C)C)cc1 [Compound 22],A (“A” indicates maximum degradation ≥ 75%)
≥ 100,< 50,≥ 1000,Cc1ncsc1-c1ccc([C@@H](C)NC(=O)[C@H]2C[C@H](O)CN2C(=O)[C@H](c2cc(OCCN3CC(Cc4cc5cc(-c6ccccc6O)nnc5s4)C3)no2)C(C)C)cc1 [Compound 23],B (“B” indicates maximum degradation ≥ 50%)
≥ 100,< 50,≥ 1000,Cc1ncsc1-c1ccc(CNC(=O)[C@@H]2C[C@@H](O)CN2C(=O)[C@@H](NC(=O)CCCC(=O)N2CC(c3cc4cc(-c5ccccc5O)nnc4s3)C2)C(C)(C)C)cc1 [Compound 31],C (“C” indicates maximum degradation < 50%)
≥ 10,< 50,≥ 1000,Cc1ncsc1-c1ccc([C@H](C)NC(=O)[C@@H]2C[C@@H](O)CN2C(=O)[C@@H](c2cc(OCCN3C[C@@H]4[C@H](C3)[C@H]4c3cc4cc(-c5ccccc5O)nnc4s3)no2)C(C)C)cc1 [Compound 32],A (“A” indicates maximum degradation ≥ 75%)

# Source: patent US20240376121A1, “COMPOUNDS AND USES THEREOF” (Foghorn Therapeutics Inc., priority 2021, published 2024)
